# From ChEMBL document CHEMBL1124001, “Synthesis and antileukemic activity of bis[[(carbamoyl)oxy]methyl]- substituted pyrrolo[2,1-a]isoquinolines, pyrrolo[1,2-a]quinolines, pyrrolo[2,1-a]isobenzazepines, and pyrrolo[1,2-a]benzazepines” (J Med Chem, 1988)
# Key:
# Mus musculus [1] = assay: Ratio of treated to that of untreated tumor-bearing control animals at 6.25 mg/kg intraperitoneally in CD2F1 mice was determined; format: functional; conditions: route intraperitoneal
# Mus musculus [2] = assay: Body weight change of test animals to that of control was determined after injection at 3.12 mg/kg intraperitoneally in CD2F1 mice; format: functional; conditions: route intraperitoneal
# Mus musculus [3] = assay: Net log cell kill was determined after injecting 12.5 mg/kg intraperitoneally in CD2F1 mice; format: functional; conditions: route intraperitoneal
# Mus musculus [4] = assay: Toxicity day survivors was determined by the ratio of animals survived to that of test animals at 25 mg/kg intraperitoneally in CD2F1 mice; 4/6; format: organism-based; design: dose 25 mg/kg, route intraperitoneal; conditions: in vivo, ip
# Mus musculus [5] = assay: Ratio of treated to that of untreated tumor-bearing control animals at 1.56 mg/kg intraperitoneally in CD2F1 mice was determined; format: functional; conditions: route intraperitoneal
# Mus musculus [6] = assay: Toxicity day survivors was determined by the ratio of animals survived to that of test animals at 3.12 mg/kg intraperitoneally in CD2F1 mice; 6/6; format: organism-based; design: dose 3.12 mg/kg, route intraperitoneal; conditions: in vivo, ip
# Mus musculus [7] = assay: Body weight change of test animals to that of control was determined after injection at 1.56 mg/kg intraperitoneally in CD2F1 mice; format: functional; conditions: route intraperitoneal
# Mus musculus [8] = assay: Ratio of treated to that of untreated tumor-bearing control animals at 3.12 mg/kg intraperitoneally in CD2F1 mice was determined; format: functional; conditions: route intraperitoneal
# Mus musculus [9] = assay: Net log cell kill was determined after injecting 1.56 mg/kg intraperitoneally in CD2F1 mice; format: functional; conditions: route intraperitoneal
# Mus musculus [10] = assay: Body weight change of test animals to that of control was determined after injection at 12.5 mg/kg intraperitoneally in CD2F1 mice; format: functional; conditions: route intraperitoneal
# Mus musculus [11] = assay: Ratio of treated to that of untreated tumor-bearing control animals at 12.5 mg/kg intraperitoneally in CD2F1 mice was determined; format: functional; conditions: route intraperitoneal
# Mus musculus [12] = assay: Net log cell kill was determined after injecting 3.12 mg/kg intraperitoneally in CD2F1 mice; format: functional; conditions: route intraperitoneal
# Mus musculus [13] = assay: Body weight change of test animals to that of control was determined after injection at 25 mg/kg intraperitoneally in CD2F1 mice; format: functional; conditions: route intraperitoneal
# Mus musculus [14] = assay: Net log cell kill was determined after injecting 6.25 mg/kg intraperitoneally in CD2F1 mice; format: functional; conditions: route intraperitoneal
# Mus musculus [15] = assay: Toxicity day survivors was determined by the ratio of animals survived to that of test animals at 100 mg/kg intraperitoneally in CD2F1 mice; 0/6; format: organism-based; design: dose 100 mg/kg, route intraperitoneal; conditions: in vivo, ip
# Mus musculus [16] = assay: Toxicity day survivors was determined by the ratio of animals survived to that of test animals at 50 mg/kg intraperitoneally in CD2F1 mice; 3/6; format: organism-based; design: dose 50 mg/kg, route intraperitoneal; conditions: in vivo, ip
# Mus musculus [17] = assay: Toxicity day survivors was determined by the ratio of animals survived to that of test animals at 12.5 mg/kg intraperitoneally in CD2F1 mice; 6/6; format: organism-based; design: dose 12.5 mg/kg, route intraperitoneal; conditions: in vivo, ip
# Mus musculus [18] = assay: Body weight change of test animals to that of control was determined after injection at 6.25 mg/kg intraperitoneally in CD2F1 mice; format: functional; conditions: route intraperitoneal
# Mus musculus [19] = assay: Toxicity day survivors was determined by the ratio of animals survived to that of test animals at 6.25 mg/kg intraperitoneally in CD2F1 mice; 6/6; format: organism-based; design: dose 6.25 mg/kg, route intraperitoneal; conditions: in vivo, ip
# Mus musculus [20] = assay: Body weight change of test animals to that of control was determined after injection at 50 mg/kg intraperitoneally in CD2F1 mice; format: functional; conditions: route intraperitoneal
# Mus musculus [21] = assay: Toxicity day survivors was determined by the ratio of animals survived to that of test animals at 1.56 mg/kg intraperitoneally in CD2F1 mice; 6/6; format: organism-based; design: dose 1.56 mg/kg, route intraperitoneal; conditions: in vivo, ip
# Mus musculus [22] = assay: Ratio of treated to that of untreated tumor-bearing control animals at 7.5 mg/kg intraperitoneally in CD2F1 mice was determined; format: functional; conditions: route intraperitoneal
# Mus musculus [23] = assay: Toxicity day survivors was determined by the ratio of animals survived to that of test animals at 7.5 mg/kg intraperitoneally in CD2F1 mice; 6/6; format: organism-based; design: dose 7.5 mg/kg, route intraperitoneal; conditions: in vivo, ip
# Mus musculus [24] = assay: Toxicity day survivors was determined by the ratio of animals survived to that of test animals at 60 mg/kg intraperitoneally in CD2F1 mice; 4/6; format: organism-based; design: dose 60 mg/kg, route intraperitoneal; conditions: in vivo, ip
# Mus musculus [25] = assay: Ratio of treated to that of untreated tumor-bearing control animals at 1.88 mg/kg intraperitoneally in CD2F1 mice was determined; format: functional; conditions: route intraperitoneal
# Mus musculus [26] = assay: Ratio of treated to that of untreated tumor-bearing control animals at 3.75 mg/kg intraperitoneally in CD2F1 mice was determined; format: functional; conditions: route intraperitoneal
# Mus musculus [27] = assay: Toxicity day survivors was determined by the ratio of animals survived to that of test animals at 3.75 mg/kg intraperitoneally in CD2F1 mice; 6/6; format: organism-based; design: dose 3.75 mg/kg, route intraperitoneal; conditions: in vivo, ip
# Mus musculus [28] = assay: Net log cell kill was determined after injecting 7.5 mg/kg intraperitoneally in CD2F1 mice; format: functional; conditions: route intraperitoneal
# Mus musculus [29] = assay: Body weight change of test animals to that of control was determined after injection at 3.75 mg/kg intraperitoneally in CD2F1 mice; format: functional; conditions: route intraperitoneal
# Mus musculus [30] = assay: Body weight change of test animals to that of control was determined after injection at 30 mg/kg intraperitoneally in CD2F1 mice; format: functional; conditions: route intraperitoneal
# Mus musculus [31] = assay: Body weight change of test animals to that of control was determined after injection at 7.5 mg/kg intraperitoneally in CD2F1 mice; format: functional; conditions: route intraperitoneal
# Mus musculus [32] = assay: Toxicity day survivors was determined by the ratio of animals survived to that of test animals at 1.88 mg/kg intraperitoneally in CD2F1 mice; 6/6; format: organism-based; design: dose 1.88 mg/kg, route intraperitoneal; conditions: in vivo, ip
# Mus musculus [33] = assay: Net log cell kill was determined after injecting 1.88 mg/kg intraperitoneally in CD2F1 mice; format: functional; conditions: route intraperitoneal
# Mus musculus [34] = assay: Toxicity day survivors was determined by the ratio of animals survived to that of test animals at 15 mg/kg intraperitoneally in CD2F1 mice; 5/5; format: organism-based; design: dose 15 mg/kg, route intraperitoneal; conditions: in vivo, ip
# Mus musculus [35] = assay: Body weight change of test animals to that of control was determined after injection at 60 mg/kg intraperitoneally in CD2F1 mice; format: functional; conditions: route intraperitoneal
# Mus musculus [36] = assay: Body weight change of test animals to that of control was determined after injection at 15 mg/kg intraperitoneally in CD2F1 mice; format: functional; conditions: route intraperitoneal
# Mus musculus [37] = assay: Net log cell kill was determined after injecting 3.75 mg/kg intraperitoneally in CD2F1 mice; format: functional; conditions: route intraperitoneal
# Mus musculus [38] = assay: Body weight change of test animals to that of control was determined after injection at 1.88 mg/kg intraperitoneally in CD2F1 mice; format: functional; conditions: route intraperitoneal
# Mus musculus [39] = assay: Net log cell kill was determined after injecting 15 mg/kg intraperitoneally in CD2F1 mice; format: functional; conditions: route intraperitoneal
# Mus musculus [40] = assay: Toxicity day survivors was determined by the ratio of animals survived to that of test animals at 30 mg/kg intraperitoneally in CD2F1 mice; 4/6; format: organism-based; design: dose 30 mg/kg, route intraperitoneal; conditions: in vivo, ip
# Mus musculus [41] = assay: Ratio of treated to that of untreated tumor-bearing control animals at 15 mg/kg intraperitoneally in CD2F1 mice was determined; format: functional; conditions: route intraperitoneal
smiles,measurement,setting,value
CC(C)NC(=O)OCc1cn2c(c1COC(=O)NC(C)C)-c1ccccc1CC2,T/C,Mus musculus [1],157%
same,T-C,Mus musculus [2],-0.5 g
same,KE,Mus musculus [3],3.84
same,TDS,Mus musculus [4],4
same,T/C,Mus musculus [5],130%
same,TDS,Mus musculus [6],6
same,T-C,Mus musculus [7],-0.3 g
same,T/C,Mus musculus [8],136%
same,KE,Mus musculus [9],-0.38
same,T-C,Mus musculus [10],-3.1 g
same,T/C,Mus musculus [11],188%
same,KE,Mus musculus [12],0
same,T-C,Mus musculus [13],-4.2 g
same,KE,Mus musculus [14],1.6
same,TDS,Mus musculus [15],0
same,TDS,Mus musculus [16],3
same,TDS,Mus musculus [17],6
same,T-C,Mus musculus [18],-0.8 g
same,TDS,Mus musculus [19],6
same,T-C,Mus musculus [20],-3.5 g
same,TDS,Mus musculus [21],6
COc1ccc2c(c1)CCn1cc(COC(=O)NC(C)C)c(COC(=O)NC(C)C)c1-2,T/C,Mus musculus [22],232%
same,TDS,Mus musculus [23],6
same,TDS,Mus musculus [24],4
same,T/C,Mus musculus [25],174%
same,T/C,Mus musculus [26],194%
same,TDS,Mus musculus [27],6
same,KE,Mus musculus [28],5.83
same,T-C,Mus musculus [29],-3.4 g
same,T-C,Mus musculus [30],-3.1 g
same,T-C,Mus musculus [31],-4.8 g
same,TDS,Mus musculus [32],6
same,KE,Mus musculus [33],2.18
same,TDS,Mus musculus [34],5
same,T-C,Mus musculus [35],-4.6 g
same,T-C,Mus musculus [36],-3 g
same,KE,Mus musculus [37],3.46
same,T-C,Mus musculus [38],-1.8 g
same,KE,Mus musculus [39],-1.07
same,TDS,Mus musculus [40],4
same,T/C,Mus musculus [41],125%
